The values that follow come from PMC6836573, “Mitochondria-targeting fluorescent molecules for high efficiency cancer growth inhibition and imaging” (Chemical Science, 2019).

Data set [1] has as its system H1693 NSCLC cell line. The experiment in a line: Cytotoxicity assay, H1693. The settings on record: Homo sapiens, NCI-H1693; H1693 cells. The format is cell-based. As to the method:
(§1) Cell culture, imaging, and cytotoxicity assay
(§2) RPMI-1640 medium. NIH/3T3 was cultured in DMEM medium. A549 was cultured in F-12K medium. T24 were cultured in McCoy's 5A medium. All culture mediums were supplemented with 10% fetal bovine serum. The cells were incubated at 37 °C in an atmosphere containing 5% CO 2. […]
(§3) Cytotoxicity assay. All test cell lines were incubated in 96-well plates overnight at a density of 3000 cells/well. The culture medium was replaced with 200 μL of culture medium, into which the testing compound was dispersed at various concentrations (1.95 - 500 μM). After incubating for 3 days, the viable cell numbers were checked and directly counted under microscopy (10X). A minimum of 1mm×1mm area was counted from each of at least three widely separated regions of cell culture. The cell proliferation rate was calculated by the following formula: cell proliferation rate (%) = (average cell number of sample wells / average cell number of control wells) ×100%.
(§4) The intact culture medium was evaluated as a control. […]

Data set [2] relates to H1437 NSCLC cell line. The experiment in a line: Cytotoxicity assay, H1437. It counts as cell-based. The settings on record: Homo sapiens, NCI-H1437; H1437 cells. The protocol:
as §1, §2, §3, §4

Data set [3] has as its system H2228 NSCLC cell line. As to the kind of experiment: Cytotoxicity assay, H2228. The format is cell-based. The settings on record: Homo sapiens, NCI-H2228, H2228 cells. The protocol: as §1, §2, §3, §4
(§5) All animal experiments were performed in compliance with the Guidelines for the Care and Use of Research Animals as established by the Stanford University Animal Studies Committee. Female athymic nude mice (nu/nu) from 4−6 weeks old were obtained from Charles River Laboratories (Boston, MA, USA) and kept under sterile conditions. 5 × 106 human lung adenocarcinoma

A short description of data set [4]: Cytotoxicity assay (direct cell counting), NIH-3T3. It counts as cell-based. The settings on record: mouse; NIH-3T3 normal cells; 3 days incubation, viable cells counted. As to the method: as §1, §2, §3, §4
In data set [5] the test system is A549 NSCLC cell line. As to the kind of experiment: Cytotoxicity assay, A549. The format is cell-based. The note with it: Homo sapiens; A549 cells. As to the method:
as §1, §2, §3, §4

The test system of data set [6] is H1944 NSCLC cell line. As to the kind of experiment: Cytotoxicity assay, H1944. The note with it: Homo sapiens, NCI-H1944; H1944 cells. It counts as cell-based. The protocol:
as §1, §2, §3, §4

The nature of data set [7]: pH stability (integrated fluorescence intensity). The note with it: pH 3.0–10.0 buffers, 24 h, 10 µM. The format is physicochemical. The protocol: with 10 µM concentration). pH 3.0~7.0 buffers are sodium hydrogen phosphate and trisodium buffer; pH 7.4~10.0 buffers are phosphate buffered saline. 5BMF was put into different pH buffer with the concentration of 10 µM. 5BMF solutions were taking out at 1, 2, 3, 4, 5, 6, 7, 8, 16, 24 h time point. And their integrated fluorescent intensity (from 450 nm to 650 nm) were measured (excited at 425 nm). All data were analyzed using Origin Pro 9.0 software (OriginLab, Northampton, Massachusetts, USA).
(1 picture or pasted object on this page, not shown here)

The subject of data set [8] is human lung cancer HCC827 xenograft. As to the kind of experiment: HCC827 s.c. tumor model treatment. The format is in vivo, nude mice. The protocol:
HCC827 s.c. tumor model treatment and imaging
All animal experiments were performed in compliance with the Guidelines for the Care and Use of Research Animals as established by the Stanford University Animal Studies Committee. Female athymic nude mice (nu/nu) from 4−6 weeks old were obtained from Charles River Laboratories (Boston, MA, USA) and kept under sterile conditions. 5 × 106 human lung adenocarcinoma […]
HCC827 cells suspended in 150 µL of PBS were inoculated subcutaneously in the right shoulder […]
When the tumors reached ~3 mm in diameter, the tumor-bearing mice were administered i.v. with 5BMF (dissolved in 150 µL PBS, with 2 µL DMSO) at 15 mg/Kg on days 1, 3, 5, 7, 9, 11, 13, 15, 17, 19, 21. Correspondingly, untreated tumor-bearing mice serving as controls were administered i.v. with 150 µL 1× PBS pH 7.4 (with 2 µL DMSO) on the same days as the treated mice. Ten mice were used for each group. Length and width of the elliptical tumors were measured by Vernier caliper after every intravenous injection. Modified ellipsoid formula ½ (Length × Width2) was used to calculate the tumor size. The tumor growth was calculated with the ratio of final volume (FV) minus initial volume (IV) to initial volume (IV). […]
The tumor tissues and some important organs such as liver, kidney, lung, heart were isolated. After frozen, the specimens sectioned at 5-8 µm and processed for a standard hematoxylin-eosin (H&E) staining. Slides were viewed and photographed with the Nanozoomer Digital Pathology Image […]
The body weights of mice are presented as means ± standard deviation (SD) of n independent measurements. The tumor volumes are presented as means ± standard error of mean (SEM) of n independent measurements. Statistical analysis was performed using a Student’s t-test or Mann-Whitney U test. Statistical significance was assigned for P values <0.05. […]

The subject of data set [9] is HCC4006 NSCLC cell line. As to the kind of experiment: Cytotoxicity assay, HCC4006. It counts as cell-based. The note with it: Homo sapiens; HCC4006 cells. As to the method: as §1, §2, §3, §4, §5

“Also recorded” adds a separate entry of the source.

Consider `Cc1cc(Br)cc2c(/C=C/c3cc[n+](C)cc3)c[nH]c12` [5BMF], for which the half-inhibitory concentration (IC50) (commonly the concentration that inhibits the measured activity by half) in data set [1] is 1.18 µM; in data set [2], 1.43 µM; in data set [3], ~0.05 µM; in [5] it was 0.727 µM; in data set [6] it was 0.261 µM; in [9], 0.106 µM. In [4], this molecule registered an IC50 at 3 days of 11 µM. Further, the “decay in buffers of different pH” value in data set [7] was “less than 20%”. For the same molecule, in [8] (15 mg/kg IV every other day), the “day from which inhibitory tumor growth effects appeared” value came to 9 days. Moreover, in data set [8] (15 mg/kg IV every other day, day 1-21, n = 10, PBS control ∼16 times), the “increase of mean tumor volume after the 21 day-treatment period” value is recorded as ~2 times. For the same molecule, in data set [8] (15 mg/kg IV, 21 days of treatment), the toxicity to mice result is reported as “no obvious toxicity”. Moreover, the “tumor growth compared to the PBS treated control group” value in data set [8] (15 mg/kg IV, 21 days, p = 0.0426 at day 21) is listed as “significantly suppressed; also recorded: suppressed dramatically; also recorded: decreased dramatically”. In data set [8] (15 mg/kg IV, 21 days, p = 0.477), the “body weight between control and treated groups” value is listed as “no significant difference”. In addition, the “major organs' histologic examination (H&E)” value in data set [8] (15 mg/kg IV, over four weeks, compared to control) is recorded as “did not reveal any significant microscopic lesions”. In addition, the “tumor pathologic section H&E staining” value in data set [8] (HCC827 tumor, 5BMF-treated) was “caused tumor inflammatory cell infiltration, fibrous tissue proliferation, and cell apoptosis”.
